Data on 9 compounds can be found in paper PMC10691236 (Proceedings of the National Academy of Sciences of the …, 2023).

Structures are written as SMILES. Read-outs that look alike come from different tables or passages of the source.

The target of series [1] is T1, luciferase-CDK2/cyclin E1 in HEK293 cells (Homo sapiens, UniProt P24941).
T1 construct: NV2641 (CCNE1); host or cells: HEK293 (ATCC CRL-1573)
Description: cell-based. The note with it: for IC50: average ± SD, n = 6, read-out: IC50, inhibition of luciferase-CDK2/cyclin E1 nanoBRET signal; for inhibition at 50 µM: nanoBRET, read-out: inhibition at the highest concentration tested (IC50 ND). The protocol: HEK293 cells were cultured in Roswell Park Memorial Institute (RPMI) (Invitrogen) with 10% fetal bovine serum (FBS; Invitrogen). For transfection, HEK293 cells were trypsinized and resuspended in Opti-MEM I Reduced Serum, no phenol red medium (Invitrogen) with 1% FBS at a concentration of 2 × 10^5 cells/mL. Five hundred microliters of a 10 μg/mL solution of DNA was prepared by adding 1 μg/mL of CDK2-NanoLuc Fusion Vector (Promega; NV2781) to 9 μg/mL of CCNE1 Expression Vector (Promega; NV2641) in Opti-MEM I Reduced Serum, no phenol red media. Thirty microliters of FuGENE HD Transfection Reagent (Promega) was added to each milliliter of DNA mixture. The lipid-DNA mixture was incubated at room temperature for 20 min.
Posttransfection, the media were replaced with fresh Opti-MEM I Reduced Serum, no phenol red medium. NanoBRET Tracer reagent K-10 […] was added at a concentration of […] (1% DMSO final) along with 0.2% DMSO (± inhibitor). […] Following incubation, plates were removed from the incubator and allowed to equilibrate to room temperature for 15 min. A 3× Complete Substrate Plus Inhibitor Solution was made by adding 30 μL of NanoBRET Nano-Glo Substrate (Promega), 10 μL of Extracellular NanoLuc Inhibitor (Promega), and 4,960 μL of Opti-MEM reduced serum medium, no phenol red (Invitrogen). […] IC50 values were calculated from the dose–response curves using Prism 9 (four-parameter, variable slope). Experiments were performed in triplicate with technical duplicates in each run.
For orientation: In BRET a luciferase serves as donor, and the signal depends on an acceptor being close.

Details of series [2]: method as in PMID 27537356. The note with it: isolated from A. fumigatus and P. roseopurpurin; ref [30], [31]; cited from earlier work.
Series [3] has as its target CDK2/cyclin E1 (Homo sapiens, UniProt P24941). The experiment in a line: CDK2/cyclin E1 ATPase assay (ADP-Glo; phosphorylation of histone H1). A general note: ADP-Glo turns the ADP formed in a reaction into a luminescent signal.
Description: Following a 30-min preincubation of the enzyme and inhibitor in the reaction mixture at room temperature, reactions were initiated with the addition of ATP and histone H1. Kinase reactions were carried out at room temperature for 30 min before reactions were quenched with the addition of one volume of ADP-Glo™ reagent (Promega). Following a 60-min incubation at room temperature to remove excess ATP, two volumes of Kinase Detection Reagent (Promega) were added to the sample. The luminescence signal was allowed to develop for 30 min before being measured on a Spark multimode plate reader (Tecan). […] IC50 values were calculated from the dose–response curves using Prism 9 (four-parameter, variable slope).
The mark [4] stands for this setting: read-out: IC50, inhibition of CDK2/cyclin E1-dependent phosphorylation of Histone H1, commercially available depsides and depsidones, n=2.
Setting [5] is: from CDK2/cyclin E1 IC50 values (Fig. 3B).

Take `Cc1cc(O)c(C)c2c1C(=O)Oc1c(C)c(O)c(O)c(C)c1O2` [compound 10, roseopurpurin G]: the values for the IC50 in series [1] and in series [3] were 40 ± 20 µM and 0.7 ± 0.1 µM, respectively. The cytotoxicity result in series [2] is listed as “generally cytotoxic”.

As to `C/C=C(/C)c1cc(O)c(C)c2c1Oc1c(C)c(O)cc(/C(C)=C\C)c1C(=O)O2` [folipastatin, reference compound], in series [3] (setting [4]), the IC50 amounted to 24 µM.

Consider `Cc1cc(O)c(C)c2c1C(=O)Oc1c(C)c(O)c(C(=O)O)c(C)c1O2` [compound 7, hypoprotocetraric acid], for which the “improvement of potency by addition of the 4-OH, relative to 8” value in series [3] (setting [5]) is reported as “approximately ninefold”.

`Cc1cc(O)c(C)c2c1Oc1c(C)c(O)cc(C)c1C(=O)O2` [compound 8, 3,8-dihydroxy-1,4,6,9-tetramethyl-dibenzo[b,e][1,4]dioxepin-11-one]: the IC50 worked out at 27 ± 7 µM in series [1] and 6.1 ± 0.5 µM in series [3].

For the compound `Cc1cc(O)c(C=O)c2c1C(=O)Oc1c(COC(=O)/C=C/C(=O)O)c(O)c(C(=O)O)c(C)c1O2` [Fumarprotocetriaric acid, fumarprotocetraric acid, reference compound], the “effect on luminescence values in CDK2/cyclin E1 ADP-detection assay” value in series [3] (commercial compound screen, n=2) is reported as “increased luminescence values”.

Consider `CO[C@@]1(C)[C@H](O)C(O)=C(C)C(=O)[C@@H]1Oc1cc(C)cc(O)c1C` [compound 11, aculeatusquinone C], for which the inhibition at 50 µM in series [1] was at most 50%. Moreover, the IC50 in series [3] came to 42 ± 2 µM. For the same compound, in series [3] (setting [5]), the “fold reduction in activity/potency relative to 1” value is given as “approximately 900 fold”.

In the case of `CO[C@@]1(C)[C@H](O)C(=O)C(C)=C2OC(=O)c3c(C)cc(O)c(C)c3O[C@@H]21` [compound 1, roseopurpurin C], in series [2], the cytotoxicity result is “generally cytotoxic”.

With `C/C=C(\C)c1cc(O)c(C)c2c1Oc1cc(O)cc(C)c1C(=O)O2` [unguinol, Unguinol, reference compound], in series [3] (setting [4]), the IC50 stood at 14 µM.

Turning to `Cc1cc(O)c(C)c(O)c1C(=O)Oc1cc(C)c(C(=O)O)c(O)c1C` [compound 6, 4-o-demethyl barbatic acid], the inhibition at 50 µM in series [1] is at most 50%. Moreover, the inhibition at 100 µM in series [3] (read-out: inhibition at the highest concentration tested (IC50 ND)) is at most 50%.
